The results in this text go back to US6677376B1, “Non-peptidic cyclophilin binding compounds and their use” (Guilford Pharmaceuticals, Inc., priority 1999, dated 2004).

What is called melting point is the temperature of the solid-liquid transition.

The subject of one data set is spinal motor neurons. Briefly: Neuroprotection assay: THA neurotoxicity in spinal cord slice cultures. The settings on record: THA 200 μM + compound 10 μM, primary cultures of spinal motor neurons. Format: cell-based, Sprague-Dawley rat. Here is the method:
For each of FIGS. 1-7, the bar graphs represent the number of viable neurons after a specified treatment regimen employed in a neuroprotective activity assay. The cells of the experiments were treated with a control solution, a neurotoxic solution, and neurotoxic+experimental compound solution. The statistical significance, p, is calculated using the standard 2 tailed Student's t test.
Each experiment consisted of two 6-well plates with 5 slices from 4 different animals per well. Media changes were performed every 3 to 4 days. […] The control was an untreated sample with 0.1% DMSO as vehicle. The THA control was a THA treated sample with 0.1% DSMO as vehicle. Two wells were used per condition. One media change with new THA and compounds was performed. […]
Quantification of surviving neurons was performed on a Ziess Axiovert microscope. Neuronal survival was determined by observing an intact neuronal cell body with processes located ventrally of the central canal in each hemisphere. […] Each hemisphere was counted individually. The statistics were performed with StatView software on a minimum of three different experiments per condition and significance was determined as compared to THA control. The percent of protection was determined from the average number of living neurons by the following equation: (drug treatment condition−THA control)/(Untreated control−THA control).

The subject of data set [1] is dorsal root ganglion (DRG) cells. Briefly: Neurite outgrowth in dorsal root ganglion (DRG) explant cultures. It is filed as cell-based, mouse. The settings on record: for neuronal cell growth/neurite extension (images): compared to control, 48 hrs; for neurotrophic or neuroprotectant activity: assay not specified. Here is the method:
FIG. 7: Primary DRG cultures were used to test for neurotrophic, neurite outgrowth promoting, and neuroregenerative activity. Each of the compounds was incubated with cells at a concentration of 1 μM for 48 hours, as detailed in the examples.
Spinal cord and dorsal root ganglion (DRG) cells from adult mice can be isolated by micro-dissection. The spinal cord with attached DRGs from an adult mouse ([…]) is removed. Spinal nerves are cut away using micro-dissection scissors and any excess material is trimmed until the DRG is free. Using sharp micro-dissecting scissors, a transverse cut is made in the peripheral nerve, leaving 1-2 mm attached, and the explant placed into Petri dish and covered with plating media. When finished collecting all DRGs, the spinal nerve is trimmed to about […] in length. Then embed the explant in 30 μL of reduced growth factor Matrigel on a circular coverslip, and place in a […] culture dish. Cover the sensory ganglion explant with 2 mls of media. Compounds, drugs or control solutions are added from 10× stocks, and incubated at 37° C., 5% CO2, 95% humidity for 48 hrs. Wash cultures twice with PBS, and fix with 10% formalin for 30 minutes. Wash the fixed cultures twice with PBS and store refrigerated in PBS.
Place cultures in Block Buffer (5% Horse Serum, 5% Goat Serum, 1% Triton X, PBS pH=7.4) overnight, while rotating, at a temperature of 4° C. Add primary antibody (Beta tubulin, Sigma Chemical Co.) diluted in Block Buffer and incubate overnight at 4° C. Wash 5 times with PBS and apply secondary antibody (Alexa 488 Goat Anti-Mouse) diluted in block buffer. Incubate overnight at 4° C. Wash 5 times with PBS and leave overnight at 4 degrees. Coverslip the cultures and measure total neurite length from the end of the attached spinal nerve. Lengths of all neurites are quantitated and compared to those present in vehicle-treated control DRGs.

Another data set has as its target CyP A (Homo sapiens, UniProt P62937). On the procedure: A number of substrates for rotamase are known in the art or can be derived from those known. Typically, the substrate contacts a sample containing a protein with rotamase activity and the conversion of the substrate is detected after a period of time. The method for detecting conversion of the substrate will vary with the particular substrate chosen.
The absorbance at 390 nm versus time is monitored for 90 seconds using a spectrophotometer and the rate constants are determined from the absorbance versus time data files.
While CyP A is used in these examples, other CyP proteins can be substituted.

Chain of CyP A (P62937 whole entry): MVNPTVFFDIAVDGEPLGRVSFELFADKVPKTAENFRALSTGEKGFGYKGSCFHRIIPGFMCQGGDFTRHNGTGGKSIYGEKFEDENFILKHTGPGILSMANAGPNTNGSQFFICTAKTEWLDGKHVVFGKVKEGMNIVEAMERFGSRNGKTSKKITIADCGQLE

For the compound `O=C(Nc1ccc(I)cc1)Nc1cc(NC(=O)Nc2ccc(I)cc2)c(Br)cc1Br` [Compound 3], the “neuroprotective activity (number of viable neurons)” value with spinal motor neurons is recorded as “displays neuroprotective activity”. Also, the “neuronal cell growth/neurite extension (images)” value in data set [1] is “increase in neuronal cell growth/neurite extension”.
Regarding `CSc1ccc(Cl)cc1C(=O)Nc1cccc(NC(=O)c2cc(Cl)ccc2SC)c1` [Compound 6], in data set [1], the “neurotrophic or neuroprotectant activity” value was “possess neurotrophic or neuroprotectant activity” and the “neuronal cell growth/neurite extension (images)” value is given as “increase in neuronal cell growth/neurite extension”.
The matching figures for `O=C(Nc1ccccc1)Nc1cc(NC(=O)Nc2ccccc2)cc(C(F)(F)F)c1` [Compound 7]: “possess neurotrophic or neuroprotectant activity” and “increase in neuronal cell growth/neurite extension”.
For `O=C(NCc1cccc2ccccc12)c1cccc(NC(=O)c2cc(Cl)cc(Cl)c2)c1` [Compound 16, {3-[(3,5-dichlorophenyl)carbonylamino]phenyl}-N-(naphthylmethyl) formamide], the melting point lay within 205 to 208 °C.
`N#Cc1cccc(NC(=O)NCc2cccc(CNC(=O)Nc3cccc(C#N)c3)c2)c1` [Compound 32]: the “% Inhibition at 10 μM” value at CyP A is reported as “None detected”.
For the compound cyclosporin A [reference compound], the “neuroprotective activity (number of viable neurons)” value in the data set on spinal motor neurons was “maintains neuronal viability”.
